US20220071961A1, “Dosing Regimen of Bicyclic Substituted Pyrazolone Azo Derivative” (Jiangsu Hengrui Medicine CO., LTD., priority 2019, published 2022)
Read-outs that look alike come from different tables or passages of the source.

Test: Effect of different intervals between administration and a meal on pharmacokinetic parameters (three-period crossover, single oral dose)
Assay type: in vivo, human
Conditions: single oral 7.5 mg; for AUC(0-t) / AUC / Cmax / MRT / Tmax / Vd/F / half-life: male, human, plasma, po, 7.5 mg; for MRT: read-out: MRT Geomean (% CVb); for Tmax: read-out: Tmax Median; for Vd/F: read-out: Vz/F Geomean (% CVb)
Protocol: Embodiment 1: Study on an effect of different intervals between the administration and a meal on pharmacokinetic parameters of a compound represented by Formula I
Diethanolamine salt tablets of the compound represented by Formula I, with specifications of 2.5 mg/table and 5 mg/tablet.
15 healthy adult male subjects were recruited for the trial. They were randomly divided into three trial groups which correspond to three dosing sequences, i.e. ABC, BCA and CAB. A cleaning period is 10 days.
Group A: every subject orally took the test products (one T1: 2.5 mg/tablet and one T2: 5 mg/tablet) once on an empty stomach with 240 mL of room temperature water on the morning of the test. […] They were not allowed to drink water within 1 h before administration and 1 h after administration, but were allowed to drink water as needed for the rest time.
(§1) Group B: every subject orally took the test products (one T1: 2.5 mg/tablet and one T2: 5 mg/tablet) once on an empty stomach with 240 mL of room temperature water on the morning of the test. They ate high-fat and high-calorie standard meals 1 h after administration, needed to stagger the timing of the breakfast and the blood sampling, and needed to finish the breakfast within 30 min. They were not allowed to drink water within 1 h before administration and 1 h after administration, but were allowed to drink water as needed for the rest time.
as §1, with “Group C:” for “Group B:”, “meals 2” for “meals 1”
The high-fat meal: calories: 800 to 1,000 kcal, composed of 150 kcal of protein, 250 kcal of carbohydrates and 500 to 600 kcal of fats, wherein about 50% of the calories come from the fats. The ingredients and proportions of the standard meals needed to be consistent in each test period. The specific administration sequences are shown in a table below. An effect of food on the medicine was analyzed by sampling blood at fixed time points before and after administration and measuring vital signs.
In the test, there were Group A (without a breakfast after administration), Group B (with a high-fat and high-calorie standard meal 1 h after administration) and Group C (with a high-fat and high-calorie standard meal 2 h after administration) which correspond to threes administration sequences, i.e. ABC, BCA and CAB. A non-compartmental model (NCA) of WinNonlin 7.0 version was used to calculate PK parameters according to the actual sampling time, and software of SAS 9.4 version was used to list and make descriptive statistical analysis on the PK parameters. Results of descriptive statistical analysis of the PK parameters of the compound represented by Formula I of the subjects in the groups (Group A, Group B and Group C) with different intervals between the administration and a meal are shown in Table 2.
A mixed-effects model was used to perform analysis of variance (ANOVA) on the PK parameters (Cmax, AUC0-t and AUC0-τ), which are subjected to natural log conversion, of the subjects in the groups with different intervals between administration and a meal by using the software of SAS 9.4 version.

[1] = Group B vs Group A (meal 1 h after administration vs no food)
[2] = Group B vs Group C (meal 1 h vs meal 2 h after administration)
[3] = Group C vs Group A (meal 2 h after administration vs no food)
[4] = food 1 h after administration relative to food 2 h after administration
[5] = food 1 h after administration relative to no food after administration
[6] = food 2 h after administration relative to no food after administration
[7] = Group A, without a breakfast after administration, N = 15
[8] = Group B, high-fat meal 1 h after administration, N = 14
[9] = Group C, high-fat meal 2 h after administration, N = 14

AUC0-t GeoLSM Ratio [1]: 23.65%
AUC0-ē GeoLSM Ratio [1]: 25.37%
Cmax GeoLSM Ratio [1]: 44.01%
AUC0-t GeoLSM Ratio [2]: 66.10%
AUC0-ē GeoLSM Ratio [2]: 65.76%
Cmax GeoLSM Ratio [2]: 78.12%
AUC0-t GeoLSM Ratio [3]: 35.78%
AUC0-ē GeoLSM Ratio [3]: 38.57%
Cmax GeoLSM Ratio [3]: 56.33%
AUC0-τ reduced by [4]: ~34%
Cmax reduced by [4]: about 22%
AUC0-τ reduced by [5]: ~75%
Cmax reduced by [5]: about 56%
AUC0-τ reduced by [6]: ~61%
Cmax reduced by [6]: about 44%
AUC(0-t) (Group A, no food after administration, n 15, mixed-effects ANOVA, read-out: AUC0-t GeoLSM (geometric least squares mean)): 857 ng·h/mL
AUC (Group A, no food after administration, n 15, mixed-effects ANOVA, read-out: AUC0-ē GeoLSM (geometric least squares mean)): 929 ng·h/mL
Cmax (Group A, no food after administration, n 15, mixed-effects ANOVA, read-out: Cmax GeoLSM (geometric least squares mean)): 35.1 ng/mL
AUC(0-t) (Group A, without a breakfast after administration, N = 15, read-out: AUC0-t Geomean (% CVb)): 857 ng·h/mL
AUC(0-t) (Group A, without a breakfast after administration, N = 15, read-out: AUC0-t Mean SD): 1040 ng·h/mL
AUC (Group A, without a breakfast after administration, N = 15, read-out: AUC0-ē Geomean (% CVb)): 929 ng·h/mL
AUC (Group A, without a breakfast after administration, N = 15, read-out: AUC0-ē Mean SD): 1110 ng·h/mL
Cmax (Group A, without a breakfast after administration, N = 15, read-out: Cmax Geomean (% CVb)): 35.1 ng/mL
Cmax (Group A, without a breakfast after administration, N = 15, read-out: Cmax Mean SD): 39.2 ng/mL
MRT [7]: 32.1 h
Tmax [7]: 7 h
Vd/F [7]: 308 L
half-life (Group A, without a breakfast after administration, N = 15, read-out: t1/2 Geomean (% CVb) (converted)): 26.4 h
half-life (Group A, without a breakfast after administration, N = 15, read-out: t1/2 Mean SD (converted)): 29.3 h
Tmax (Group B, high-fat and high-calorie standard meal 1 h after administration, N = 14): 2 h
AUC(0-t) (Group B, high-fat meal 1 h after administration, N = 14, read-out: AUC0-t Geomean (% CVb)): 202 ng·h/mL
AUC(0-t) (Group B, high-fat meal 1 h after administration, N = 14, read-out: AUC0-t Mean SD): 314 ng·h/mL
AUC (Group B, high-fat meal 1 h after administration, N = 14, read-out: AUC0-ē Geomean (% CVb)): 235 ng·h/mL
AUC (Group B, high-fat meal 1 h after administration, N = 14, read-out: AUC0-ē Mean SD): 347 ng·h/mL
Cmax (Group B, high-fat meal 1 h after administration, N = 14, read-out: Cmax Geomean (% CVb)): 15.4 ng/mL
Cmax (Group B, high-fat meal 1 h after administration, N = 14, read-out: Cmax Mean SD): 21.1 ng/mL
MRT [8]: 17.4 h
Vd/F [8]: 531 L
half-life (Group B, high-fat meal 1 h after administration, N = 14, read-out: t1/2 Geomean (% CVb) (converted)): 11.6 h
half-life (Group B, high-fat meal 1 h after administration, N = 14, read-out: t1/2 Mean SD (converted)): 13.1 h
AUC(0-t) (Group B, meal 1 h after administration, n 14, mixed-effects ANOVA, read-out: AUC0-t GeoLSM (geometric least squares mean)): 203 ng·h/mL
AUC (Group B, meal 1 h after administration, n 14, mixed-effects ANOVA, read-out: AUC0-ē GeoLSM (geometric least squares mean)): 236 ng·h/mL
Cmax (Group B, meal 1 h after administration, n 14, mixed-effects ANOVA, read-out: Cmax GeoLSM (geometric least squares mean)): 15.5 ng/mL
Tmax (Group C, high-fat and high-calorie standard meal 2 h after administration, N = 14): 5.01 h
AUC(0-t) (Group C, high-fat meal 2 h after administration, N = 14, read-out: AUC0-t Geomean (% CVb)): 303 ng·h/mL
AUC(0-t) (Group C, high-fat meal 2 h after administration, N = 14, read-out: AUC0-t Mean SD): 547 ng·h/mL
AUC (Group C, high-fat meal 2 h after administration, N = 14, read-out: AUC0-ē Geomean (% CVb)): 355 ng·h/mL
AUC (Group C, high-fat meal 2 h after administration, N = 14, read-out: AUC0-ē Mean SD): 591 ng·h/mL
Cmax (Group C, high-fat meal 2 h after administration, N = 14, read-out: Cmax Geomean (% CVb)): 19.6 ng/mL
Cmax (Group C, high-fat meal 2 h after administration, N = 14, read-out: Cmax Mean SD): 28.6 ng/mL
MRT [9]: 21.4 h
Vd/F [9]: 460 L
half-life (Group C, high-fat meal 2 h after administration, N = 14, read-out: t1/2 Geomean (% CVb) (converted)): 15.1 h
half-life (Group C, high-fat meal 2 h after administration, N = 14, read-out: t1/2 Mean SD (converted)): 18.6 h
AUC(0-t) (Group C, meal 2 h after administration, n 14, mixed-effects ANOVA, read-out: AUC0-t GeoLSM (geometric least squares mean)): 307 ng·h/mL
AUC (Group C, meal 2 h after administration, n 14, mixed-effects ANOVA, read-out: AUC0-ē GeoLSM (geometric least squares mean)): 358 ng·h/mL
Cmax (Group C, meal 2 h after administration, n 14, mixed-effects ANOVA, read-out: Cmax GeoLSM (geometric least squares mean)): 19.8 ng/mL
% AUCex Geomean (% CVb) [7]: 6.62%
CL/F Geomean (% CVb) [7]: 8.0740 L/h
CL/F Mean SD [7]: 10.4506 L/h
≅z Geomean (% CVb) [7]: 0.0263 h⁻¹
% AUCex Geomean (% CVb) [8]: 11.39%
CL/F Geomean (% CVb) [8]: 31.8657 L/h
CL/F Mean SD [8]: 52.4396 L/h
≅z Geomean (% CVb) [8]: 0.0600 h⁻¹
% AUCex Geomean (% CVb) [9]: 10.57%
CL/F Geomean (% CVb) [9]: 21.1107 L/h
CL/F Mean SD [9]: 42.1126 L/h
≅z Geomean (% CVb) [9]: 0.0459 h⁻¹
Structure (SMILES): CC1=NN(c2ccc3c(c2)CCCC3)C(=O)/C1=N\Nc1cccc(-c2ccc(C(=O)O)o2)c1O [compound represented by Formula I]
